Laboratory results published in article PMC4998035 (International Journal of Nanomedicine, 2016).
Converted amounts (≈) assume the structure as drawn. Like-named read-outs stand apart in the source and are kept apart here.

Assays:
[1] = In vitro percutaneous permeation, vertical Franz diffusion cell; format: in vitro ADME, Sprague Dawley rats; settings: 20% NIC solution without FK506; data not shown
[2] = in vivo; cited from earlier work
[3] = Solubility of FK506 in NIC solution; format: physicochemical
[4] = in vitro; cited from earlier work

NC(=O)c1cccnc1 [NIC, nicotinamide]
Permeation of NIC into skin [1]: easily permeate into skin

C=CC[C@@H]1/C=C(\C)C[C@H](C)C[C@H](OC)[C@H]2O[C@@](O)(C(=O)C(=O)N3CCCC[C@H]3C(=O)O[C@H](/C(C)=C/[C@@H]3CC[C@@H](O)[C@H](OC)C3)[C@H](C)[C@@H](O)CC1=O)[C@H](C)C[C@@H]2OC [FK506, Tacrolimus]
Immunosuppressant activity relative to cyclosporine A [2]: 10–20 fold
Solubility in 30% (w/v) NIC solution relative to that in water ([3]; 30% (w/v) NIC vs water): 532 fold
solubility at 3 days ([3]; water (0% (w/v) NIC), 37 °C, water, thermodynamic from solid): 0.69 ± 0.24 µg/mL (≈ 0.858 µM)
Immunosuppressant activity relative to cyclosporine A [4]: 30–100 fold
